{"source": "patent US20250064699A1", "about": "“CHLORHEXIDINE GLUCONATE-ISOPROPYL ALCOHOL WET WIPE PRODUCT AND PREPARATION METHOD THEREOF” (Dukal, LLC, priority 2021, published 2025)", "assay": "Stability testing: contents of chlorhexidine gluconate (liquid chromatography) and isopropyl alcohol (gas chromatography) in the wet wipe, long-term experiment", "format": "physicochemical", "method": "The test was performed by chromatography. The content of chlorhexidine gluconate in the 2% chlorhexidine gluconate-isopropyl alcohol solution and the wet wipe was quantitatively detected by liquid chromatography. The content of isopropyl alcohol in the wet wipe was quantitatively detected by gas chromatography. In this test, the contents of chlorhexidine gluconate and isopropyl alcohol were used as evaluation indexes. The contents of chlorhexidine gluconate and isopropyl alcohol were measured by a long-term experiment. Relative standard deviation (RSD) was used to determine the stability of the contents of chlorhexidine gluconate and isopropyl alcohol in the chlorhexidine gluconate-isopropyl alcohol wet wipe. The contents were respectively measured at Month 0, Month 1, Month 3, Month 6, Month 9, Month 12, Month 18 and Month 24. Based on the content at Month 0 (100%), the ratio of the content at the subsequent time points to the content at Month 0 was calculated respectively, as shown in Table 1."}
{"smiles": "CC(C)O", "note": "[Isopropyl alcohol]", "values": [{"measurement": "ratio of the content to the content at Month 0", "setting": "Month 0 (set as 100%)", "value": 100, "unit": "%"}, {"measurement": "ratio of the content to the content at Month 0", "setting": "Month 3", "value": 97.5, "unit": "%"}, {"measurement": "ratio of the content to the content at Month 0", "setting": "Month 6", "value": 100.8, "unit": "%"}, {"measurement": "ratio of the content to the content at Month 0", "setting": "Month 9", "value": 100, "unit": "%"}, {"measurement": "ratio of the content to the content at Month 0", "setting": "Month 12", "value": 99.2, "unit": "%"}, {"measurement": "ratio of the content to the content at Month 0", "setting": "Month 18", "value": 100.8, "unit": "%"}, {"measurement": "ratio of the content to the content at Month 0", "setting": "Month 24", "value": 102.5, "unit": "%"}]}
{"smiles": "N=C(NCCCCCCNC(=N)NC(=N)Nc1ccc(Cl)cc1)NC(=N)Nc1ccc(Cl)cc1.O=C(O)[C@H](O)[C@@H](O)[C@H](O)[C@H](O)CO.O=C(O)[C@H](O)[C@@H](O)[C@H](O)[C@H](O)CO", "note": "[Chlorhexidine gluconate]", "values": [{"measurement": "ratio of the content to the content at Month 0", "setting": "Month 0 (set as 100%)", "value": 100, "unit": "%"}, {"measurement": "ratio of the content to the content at Month 0", "setting": "Month 3", "value": 100, "unit": "%"}, {"measurement": "ratio of the content to the content at Month 0", "setting": "Month 6", "value": 100, "unit": "%"}, {"measurement": "ratio of the content to the content at Month 0", "setting": "Month 9", "value": 100, "unit": "%"}, {"measurement": "ratio of the content to the content at Month 0", "setting": "Month 12", "value": 100, "unit": "%"}, {"measurement": "ratio of the content to the content at Month 0", "setting": "Month 18", "value": 100, "unit": "%"}, {"measurement": "ratio of the content to the content at Month 0", "setting": "Month 24", "value": 106.2, "unit": "%^"}]}
